Molecular target: T1, Xanthine dehydrogenase/oxidase (Bos taurus, UniProt P80457)
Test: Inhibition of bovine xanthine oxidase using xanthine as substrate by measuring uric acid formation measured 30 secs interval for 5 mins by spectrophotometry analysis
Details: not given; call rule not given here

T1 sequence (P80457 whole entry): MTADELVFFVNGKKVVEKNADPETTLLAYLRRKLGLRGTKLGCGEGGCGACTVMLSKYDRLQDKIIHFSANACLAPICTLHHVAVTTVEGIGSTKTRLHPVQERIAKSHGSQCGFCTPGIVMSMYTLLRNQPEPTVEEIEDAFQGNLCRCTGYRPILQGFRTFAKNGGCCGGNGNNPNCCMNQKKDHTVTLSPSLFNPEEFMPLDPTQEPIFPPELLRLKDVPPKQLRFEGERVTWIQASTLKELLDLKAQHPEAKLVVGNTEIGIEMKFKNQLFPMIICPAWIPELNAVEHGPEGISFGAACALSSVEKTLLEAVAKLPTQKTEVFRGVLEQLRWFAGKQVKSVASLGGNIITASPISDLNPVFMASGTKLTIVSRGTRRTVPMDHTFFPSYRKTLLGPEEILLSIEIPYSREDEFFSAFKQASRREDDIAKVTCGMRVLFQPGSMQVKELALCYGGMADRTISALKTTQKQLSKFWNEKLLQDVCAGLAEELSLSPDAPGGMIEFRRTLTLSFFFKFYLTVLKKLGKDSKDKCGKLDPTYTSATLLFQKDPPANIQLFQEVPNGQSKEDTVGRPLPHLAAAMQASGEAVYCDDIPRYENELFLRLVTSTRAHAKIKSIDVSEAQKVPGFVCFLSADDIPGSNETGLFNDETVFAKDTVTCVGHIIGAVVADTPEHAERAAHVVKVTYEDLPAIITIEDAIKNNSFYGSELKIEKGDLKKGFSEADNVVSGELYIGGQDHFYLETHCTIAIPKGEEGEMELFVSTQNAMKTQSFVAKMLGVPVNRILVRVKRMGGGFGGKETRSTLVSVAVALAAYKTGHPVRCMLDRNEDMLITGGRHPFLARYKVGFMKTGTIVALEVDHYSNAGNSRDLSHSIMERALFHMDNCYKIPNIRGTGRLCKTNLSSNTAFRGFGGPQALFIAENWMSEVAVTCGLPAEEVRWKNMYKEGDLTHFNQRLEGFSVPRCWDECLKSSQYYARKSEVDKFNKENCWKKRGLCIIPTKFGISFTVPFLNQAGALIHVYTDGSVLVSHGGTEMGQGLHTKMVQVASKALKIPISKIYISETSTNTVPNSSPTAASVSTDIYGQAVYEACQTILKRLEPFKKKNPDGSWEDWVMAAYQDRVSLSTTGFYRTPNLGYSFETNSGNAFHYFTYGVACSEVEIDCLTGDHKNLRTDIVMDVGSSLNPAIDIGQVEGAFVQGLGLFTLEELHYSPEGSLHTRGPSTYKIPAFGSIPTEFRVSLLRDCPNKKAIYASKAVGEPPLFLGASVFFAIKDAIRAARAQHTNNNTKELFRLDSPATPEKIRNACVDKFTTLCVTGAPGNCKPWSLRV

Compared with `N#Cc1cn(Cc2ccc(Br)cc2)c2ccc(-c3cc(C(=O)O)no3)cc12`, `N#Cc1cn(Cc2ccc(F)cc2)c2ccc(-c3cc(C(=O)O)no3)cc12` is 1.9-fold lower in IC50: 1170 nM for the first, 600 nM for the second. The second is the more potent here.

`CC(C)=Cn1cc(C#N)c2cc(-c3cc(C(=O)O)no3)ccc21` and `CC(C)n1cc(C#N)c2cc(-c3cc(C(=O)O)no3)ccc21` are within 1.5-fold of each other in IC50: 190 nM for the first, 130 nM for the second.

`C=CCn1cc(C#N)c2cc(-c3cc(C(=O)O)no3)ccc21` and `CCn1cc(C#N)c2cc(-c3cc(C(=O)O)no3)ccc21` are within 1.5-fold of each other in IC50: 390 nM for the first, 560 nM for the second.

`N#Cc1cn(Cc2cccc(F)c2)c2ccc(-c3cc(C(=O)O)no3)cc12` and `N#Cc1cn(Cc2cccc(Cl)c2)c2ccc(-c3cc(C(=O)O)no3)cc12` are within 1.5-fold of each other in IC50: 1290 nM for the first, 1840 nM for the second.

Going from `CC#Cn1cc(C#N)c2cc(-c3cc(C(=O)O)no3)ccc21` to `CCCn1cc(C#N)c2cc(-c3cc(C(=O)O)no3)ccc21`, the IC50 falls from 570 nM to 320 nM (1.8-fold).

Going from `N#Cc1cn(C2CCC2)c2ccc(-c3cc(C(=O)O)no3)cc12` to `N#Cc1cn(C2CCCC2)c2ccc(-c3cc(C(=O)O)no3)cc12`, the IC50 falls from 250 nM to 140 nM (1.8-fold). The second is the more potent here.

`CCCCCn1cc(C#N)c2cc(-c3cc(C(=O)O)no3)ccc21` and `CCCCn1cc(C#N)c2cc(-c3cc(C(=O)O)no3)ccc21` are within 1.5-fold of each other in IC50: 600 nM for the first, 540 nM for the second.

First: N#Cc1cn(Cc2ccccc2F)c2ccc(-c3cc(C(=O)O)no3)cc12
Second: N#Cc1cn(Cc2ccccc2Cl)c2ccc(-c3cc(C(=O)O)no3)cc12
The IC50 of the first is 1.6-fold higher: 310 nM for the first, 200 nM for the second. The second is the more potent here.

Going from `N#Cc1c[nH]c2ccc(-c3cc(C(=O)O)no3)cc12` to `CC(C)Cn1cc(C#N)c2cc(-c3cc(C(=O)O)no3)ccc21`, the IC50 falls from 3100 nM to 240 nM (13-fold).

`N#Cc1cn(Cc2ccc(Cl)cc2)c2ccc(-c3cc(C(=O)O)no3)cc12` and `N#Cc1cn(Cc2ccccc2)c2ccc(-c3cc(C(=O)O)no3)cc12` are within 1.5-fold of each other in IC50: 1260 nM for the first, 1030 nM for the second.

`CC(C)CCn1cc(C#N)c2cc(-c3cc(C(=O)O)no3)ccc21` and `N#Cc1cn(CC2CCCC2)c2ccc(-c3cc(C(=O)O)no3)cc12` are within 1.5-fold of each other in IC50: 380 nM for the first, 270 nM for the second.

In the case of `Cc1ccccc1Cn1cc(C#N)c2cc(-c3cc(C(=O)O)no3)ccc21`, the IC50 is reported as 260 nM.

Molecular target: T1, Xanthine dehydrogenase/oxidase
Test: Binding affinity to bovine xanthine oxidase assessed as inhibition constant
Details: not given

`CC(C)n1cc(C#N)c2cc(-c3cc(C(=O)O)no3)ccc21` gave a Ki of 40 nM.

Molecular target: not listed separately
Test: Binding affinity to bovine xanthine oxidase/xanthine substrate complex assessed as inhibition constant
Parameters: species or system Bos taurus
Details: not given

Compound `CC(C)n1cc(C#N)c2cc(-c3cc(C(=O)O)no3)ccc21` has a Ki of 360 nM.

Molecular target: T1, Xanthine dehydrogenase/oxidase
Test: Mixed type inhibition of bovine xanthine oxidase assessed as increase in Km with decrease in Vmax using xanthine as substrate at upto 0.30 uM by Lineweaver-Burk plot analysis
Details: cattle, 0.3 µM

With `CC(C)n1cc(C#N)c2cc(-c3cc(C(=O)O)no3)ccc21` the “inhibition (INH)” value was “Active”.

Molecular target: T1, Xanthine dehydrogenase/oxidase
Test: Potency index, ratio of Allopurinol IC50 to test compound IC50 for inhibition of bovine xanthine oxidase using xanthine as substrate by measuring uric acid formation measured 30 secs interval for 5 mins by spectrophotometry analysis
Details: cattle

With `CC(C)n1cc(C#N)c2cc(-c3cc(C(=O)O)no3)ccc21` the “Ratio IC50” value was 22.

Molecular target: T1, Xanthine dehydrogenase/oxidase
Test: Inhibition of bovine xanthine oxidase using xanthine as substrate at 10.0 uM measured 30 secs interval for 5 mins by spectrophotometry relative to control
Details: cattle

`CC(C)=Cn1ccc2cc(-c3cc(C(=O)O)no3)ccc21` and `CCOC(=O)c1cc(-c2ccc3c(c2)c(C#N)cn3C(C)C)on1` cannot be ordered by inhibition at 10 µM: less than 50% for the first, less than 50% for the second.

Source: ChEMBL document CHEMBL5500369, “Design, synthesis, and biological evaluation of 5-(1H-indol-5-yl)isoxazole-3-carboxylic acids as novel xanthine oxidase inhibitors” (Eur J Med Chem, 2024)
